The first test deals with HIV-1 (H9IIIB strain). The test is described as follows: Cell-based HIV infection assay using a reporter (Cell-Based), MT4-GFP cells. The settings on record: Human immunodeficiency virus 1, MT4-GFP cells infected with HIV-1 H9IIIB; 50% normal human serum; mean of at least two independent experiments; read-out: Cell-based IP. An outline of the steps: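 IC50 from 4-parameter dose-response of % viral growth inhibition, using the 48 h/24 h infected-cell ratio scaled between DMSO and a protease/integrase/NNRTI triple-drug control. Assay used MT4 cells with HIV-LTR-GFP reporter, pre-infected 24 h with HIV-1 H9IIIB, in 50% normal human serum.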
For `COC(=O)N[C@H](C(=O)Nc1cncc(F)c1CC[C@H]1CNC[C@@H](C)N1S(=O)(=O)c1ccc(OC(F)(F)F)cc1)[C@@H](c1ccc(F)cc1)c1cc(F)cc(F)c1` [Example 247, (βS)-β-(3,5-difluorophenyl)-4-fluoro-N-(5-fluoro-4-{2-[(2S,6R)-6-methyl-1-{[4-(trifluoromethoxy)phenyl]sulfonyl}piperazin-2-yl]ethyl}pyridin-3-yl)-Nα-(methoxycarbonyl)-L-phenylalaninamide], the IC50 is 77 nM.
Same read-out and setting: the figure for `COC(=O)N[C@H](C(=O)Nc1cccc(F)c1CC[C@H]1CNC[C@@H](C)N1S(=O)(=O)c1ccc(OC(F)(F)F)cc1)[C@@H](c1ccc(F)cc1)c1cc(F)cc(F)c1` [Example 248, (βS)-β-(3,5-difluorophenyl)-4-fluoro-N-(3-fluoro-2-{2-[(2S,6R)-6-methyl-1-{[4-(trifluoromethoxy)phenyl]sulfonyl}piperazin-2-yl]ethyl}phenyl)-Nα-(methoxycarbonyl)-L-phenylalaninamide] is 45 nM.
Same read-out and setting: next, `COc1ccc(S(=O)(=O)N2[C@@H](CCc3c(F)cccc3NC(=O)[C@@H](N)[C@@H](c3cccc(Cl)c3)C(C)C)CNC[C@@H]2C)cc1` [Example 249, (βR)-3-chloro-N-[3-fluoro-2-(2-{(2S,6S)-1-[(4-methoxyphenyl)sulfonyl]-6-methylpiperazin-2-yl}ethyl)phenyl]-β-(1-methylethyl)-L-phenylalaninamide]: 53 nM.
On the same count and under the same terms, the figure for `COC(=O)N[C@H](C(=O)Nc1cccc(F)c1CC[C@H]1CNC[C@H](C)N1S(=O)(=O)c1ccc(OC)cc1)[C@@H](c1cccc(Cl)c1)C(C)C` [Example 250, (βR)-3-chloro-N-[3-fluoro-2-(2-{(2S,6S)-1-[(4-methoxyphenyl)sulfonyl]-6-methylpiperazin-2-yl}ethyl)phenyl]-Nα-(methoxycarbonyl)-β-(1-methylethyl)-L-phenylalaninamide] is 34 nM; for `COc1ccc(S(=O)(=O)N2[C@@H](CCc3c(F)cccc3NC(=O)[C@@H](N)[C@@H](c3ccc(F)cc3)c3cc(F)cc(F)c3)CNC[C@@H]2C)cc1` [Example 251, (βS)-β-(3,5-difluorophenyl)-4-fluoro-N-[3-fluoro-2-(2-{(2S,6S)-1-[(4-methoxyphenyl)sulfonyl]-6-methylpiperazin-2-yl}ethyl)phenyl]-L-phenylalaninamide] it is 4.1 nM.
In the case of `COC(=O)N[C@H](C(=O)Nc1cccc(F)c1CC[C@H]1CNC[C@H](C)N1S(=O)(=O)c1ccc(OC)cc1)[C@@H](c1ccc(F)cc1)c1cc(F)cc(F)c1` [Example 252, (βS)-β-(3,5-difluorophenyl)-4-fluoro-N-[3-fluoro-2-(2-{(2S,6S)-1-[(4-methoxyphenyl)sulfonyl]-6-methylpiperazin-2-yl}ethyl)phenyl]-Nα-(methoxycarbonyl)-L-phenylalaninamide], the IC50 was found to be 7.9 nM.
On the same count and under the same terms, next, `COC(=O)N[C@H](C(=O)Nc1cccc(F)c1CC[C@H]1CNC[C@H](C)N1S(=O)(=O)c1ccccc1)[C@H](c1cncc(F)c1)c1cccc(Cl)c1` [Example 253, (βS)-3-chloro-N-(3-fluoro-2-{2-[(2S,6S)-6-methyl-1-(phenylsulfonyl)piperazin-2-yl]ethyl}phenyl)-β-(5-fluoropyridin-3-yl)-Nα-(methoxycarbonyl)-L-phenylalaninamide]: 24 nM; `CC(C)[C@H](c1ccc(Cl)cc1)[C@H](N)C(=O)Nc1cncc(F)c1CC[C@H]1CNC[C@@H](C)N1S(=O)(=O)c1ccccc1` [Example 254, (βR)-4-chloro-N-(5-fluoro-4-{2-[(2S,6R)-6-methyl-1-(phenylsulfonyl)piperazin-2-yl]ethyl}pyridin-3-yl)-β-(1-methylethyl)-L-phenylalaninamide]: 16 nM.
As for `C[C@@H]1CNC[C@H](CCc2c(F)cccc2NC(=O)[C@@H](N)[C@@H](c2ccc(F)cc2)c2cc(F)cc(F)c2)N1S(=O)(=O)c1ccc(OC(F)(F)F)cc1` [Example 255, (βS)-β-(3,5-difluorophenyl)-4-fluoro-N-(3-fluoro-2-{2-[(2S,6R)-6-methyl-1-{[4-(trifluoromethoxy)phenyl]sulfonyl}piperazin-2-yl]ethyl}phenyl)-L-phenylalaninamide], the IC50 was 59 nM.
`COC(=O)N[C@H](C(=O)Nc1cccc(F)c1CC[C@H]1CNC[C@@H](C)N1S(=O)(=O)C1CC1)[C@@H](c1ccc(F)cc1)c1cc(F)cc(F)c1` [Example 257, (βS)-N-(2-{2-[(2S,6R)-1-(cyclopropylsulfonyl)-6-methylpiperazin-2-yl]ethyl}-3-fluorophenyl)-β-(3,5-difluorophenyl)-4-fluoro-Nα-(methoxycarbonyl)-L-phenylalaninamide]: the IC50 was 27 nM.
With `C[C@H]1CNC[C@H](CCc2c(F)cccc2NC(=O)[C@@H](N)[C@@H](c2ccc(F)cc2)c2cc(F)cc(F)c2)N1S(C)(=O)=O` [Example 258, (βS)-β-(3,5-difluorophenyl)-4-fluoro-N-(3-fluoro-2-{2-[(2S,6S)-6-methyl-1-(methylsulfonyl)piperazin-2-yl]ethyl}phenyl)-L-phenylalaninamide], the IC50 was 31 nM.
On the same count and under the same terms, next, `C[C@@H]1CNC[C@H](CCc2c(F)cccc2NC(=O)[C@@H](N)[C@H](c2cncc(F)c2)c2cccc(Cl)c2)N1S(=O)(=O)c1ccccc1` [Example 261, (βS)-3-chloro-N-(3-fluoro-2-{2-[(2S,6R)-6-methyl-1-(phenylsulfonyl)piperazin-2-yl]ethyl}phenyl)-β-(5-fluoropyridin-3-yl)-L-phenylalaninamide]: 70 nM; `CC[C@H]1CNC[C@H](CCc2c(F)cccc2NC(=O)[C@@H](N)[C@@H](c2ccc(F)cc2)c2cc(F)cc(F)c2)N1S(C)(=O)=O` [Example 262, (βS)-β-(3,5-difluorophenyl)-N-(2-{2-[(2S,6S)-6-ethyl-1-(methylsulfonyl)piperazin-2-yl]ethyl}-3-fluorophenyl)-4-fluoro-L-phenylalaninamide]: 25 nM.

Still in this test, the particulars now being: MT4-GFP cells infected with HIV-1 H9IIIB; 50% normal human serum; mean of at least two independent experiments; read-out: Cell-based IP.
Take `CC(C)OCC1CNC[C@H](CCc2c(F)cccc2NC(=O)[C@@H](N)[C@@H](c2ccc(F)cc2)c2cc(F)cc(F)c2)N1S(=O)(=O)C1CC1` (stereo partly drawn) [Example 256, (βS)-N-[2-(2-{(2S)-1-(cyclopropylsulfonyl)-6-[(1-methylethoxy)methyl]piperazin-2-yl}ethyl)-3-fluorophenyl]-β-(3,5-difluorophenyl)-4-fluoro-L-phenylalaninamide]: the IC50 turned out to be 73 nM.
Consider `COC(=O)N[C@H](C(=O)Nc1cccc(F)c1CC[C@H]1CNC[C@H](C)N1S(C)(=O)=O)[C@@H](c1ccc(F)cc1)c1cc(F)cc(F)c1` [Example 259, (βS)-β-(3,5-difluorophenyl)-4-fluoro-N-(3-fluoro-2-{2-[(2S,6S)-6-methyl-1-(methylsulfonyl)piperazin-2-yl]ethyl}phenyl)-Nα-(methoxycarbonyl)-L-phenylalaninamide], for which the IC50 was 18 nM.
Same read-out and setting: next, `COCC1CNC[C@H](CCc2c(F)cccc2NC(=O)[C@@H](N)[C@@H](c2ccc(Cl)cc2)C2CCOCC2)N1S(C)(=O)=O` (stereo partly drawn) [Example 260, (βR)-4-chloro-N-(3-fluoro-2-{2-[(2S)-6-(methoxymethyl)-1-(methylsulfonyl)piperazin-2-yl]ethyl}phenyl)-β-(tetrahydro-2H-pyran-4-yl)-L-phenylalaninamide]: 140 nM.

Values taken from patent US9840478B2 (MERCK SHARP & DOHME CORP., priority 2013, dated 2017).
